The target of assay [1] is T1, rat-species vanilloid receptor 1 (VR1/TRPV1) (Rattus norvegicus, UniProt O35433).
T1 construct: endogenous in cells; host or cells: primary cultured rat dorsal root ganglion cells
Briefly: Functional testing on vanilloid receptor 1 (VR1/TRPV1), FLIPR Ca2+ inflow assay in rat dorsal root ganglia cells. The format is cell-based. Particulars: test compound 10 μM; for inhibition at 10 µM / VR1 (rat) (% inhibition compared to 10 μM CP): 5 min incubation, then 100 nM capsaicin, relative to maximum achievable inhibition with 10 μM capsaicin; for inhibition at 10 µM: read-out: VR1 (rat) (% inhibition compared to 10 μM CP); for activation at 10 µM / VR1 (rat) (% stimulation compared to 10 μM CP): Ca2+ inflow relative to signal of 10 μM capsaicin (CP); for activation at 10 µM: read-out: VR1 (rat) (% stimulation compared to 10 μM CP). The text has this: I. Functional Testing Carried out on the Vanilloid Receptor 1 (VRI/TRPV1 Receptor)
The agonistic or antagonistic effect of the substances to be tested can be determined on the rat-species vanilloid receptor 1 (VR1/TRPV1) using the following assay. According to this assay, the Ca^2+ inflow is quantified through the receptor channel using a Ca^2+-sensitive dye (type Fluo-4, Molecular Probes Europe BV, Leiden, Netherlands) in a fluorescent imaging plate reader (FLIPR, Molecular Devices, Sunnyvale, USA).
Complete medium: 50 mL HAMS F12 nutrient mixture (Gibco Invitrogen GmbH, Karlsruhe, Germany) with
10% by volume of FCS (foetal calf serum, Gibco Invitrogen GmbH, Karlsruhe, Germany, […]);
2 mM L-glutamine (Sigma, Munich, Germany);
1% by weight of AA solution (antibiotic/antimyotic solution, PAA, Pasching, Austria) and 25 ng/ml NGF medium (2.5 S, Gibco Invitrogen GmbH, Karlsruhe, Germany)
Cell culture plate: Poly-D-lysine-coated, black 96 well plates having a clear base (96 well black/clear plate, BD Biosciences, Heidelberg, Germany) were additionally coated with laminin (Gibco Invitrogen GmbH, Karlsruhe, Germany), the laminin being diluted with PBS (Ca—Mg-free PBS, Gibco Invitrogen GmbH, Karlsruhe, Germany) to a concentration of 100 μg/mL. Aliquots having a laminin concentration of 100 μg/mL were removed and stored at −20° C. The aliquots were diluted with PBS in a ratio of 1:10 to 10 μg/mL laminin and in each case 50 μL of the solution were pipetted into a recess in the cell culture plate. The cell culture plates were incubated for at least two hours at 37° C., the excess solution was removed by suction-filtration and the recesses were each washed twice with PBS. The coated cell culture plates were stored with excess PBS which was not removed until just before the feeding of the cells.
Preparation of the Cells:
The vertebral column was removed from decapitated rats and placed immediately into cold HBSS buffer (Hank's buffered saline solution, Gibco Invitrogen GmbH, Karlsruhe, Germany), i.e. buffer located in an ice bath, mixed with 1% by volume (percent by volume) of an AA solution (antibiotic/antimyotic solution, PAA, Pasching, Austria). The vertebral column was cut longitudinally and removed together with fasciae from the vertebral canal. Subsequently, the dorsal root ganglia (DRG) were removed and again stored in cold HBSS buffer mixed with 1% by volume of an AA solution. The DRG, from which all blood remnants and spinal nerves had been removed, were transferred in each case to 500 μL of cold type 2 collagenase (PAA, Pasching, Austria) and incubated for 35 minutes at 37° C. After the addition of 2.5% by volume of trypsin (PAA, Pasching, Austria), incubation was continued for 10 minutes at 37° C. After complete incubation, the enzyme solution was carefully pipetted off and 500 μL of complete medium were added to each of the remaining DRG. The DRG were in each case suspended several times, drawn through cannulae No. 1, No. 12 and No. 16 using a syringe and transferred to a 50 mL Falcon tube which was filled up to 15 mL with complete medium. The contents of each Falcon tube was in each case filtered through a 70 μm Falcon filter element and centrifuged for 10 minutes at 1,200 rpm and room temperature. The resulting pellet was in each case taken up in 250 μL of complete medium and the number of cells determined.
The number of cells in the suspension was set to 3×10^5 per mL and 150 μL of this suspension were in each case introduced into a recess in the cell culture plates coated as described hereinbefore. In the incubator the plates were left for two to three days at 37° C., 5% by volume of CO2 and 95% relative humidity. […]

Assay [2] deals with T2, VR1 (human) (Homo sapiens, UniProt Q8NER1).
T2 construct: expressed in transfected cells; host or cells: CHO K1 cells (ECACC)
T2 sequence (Q8NER1 whole entry): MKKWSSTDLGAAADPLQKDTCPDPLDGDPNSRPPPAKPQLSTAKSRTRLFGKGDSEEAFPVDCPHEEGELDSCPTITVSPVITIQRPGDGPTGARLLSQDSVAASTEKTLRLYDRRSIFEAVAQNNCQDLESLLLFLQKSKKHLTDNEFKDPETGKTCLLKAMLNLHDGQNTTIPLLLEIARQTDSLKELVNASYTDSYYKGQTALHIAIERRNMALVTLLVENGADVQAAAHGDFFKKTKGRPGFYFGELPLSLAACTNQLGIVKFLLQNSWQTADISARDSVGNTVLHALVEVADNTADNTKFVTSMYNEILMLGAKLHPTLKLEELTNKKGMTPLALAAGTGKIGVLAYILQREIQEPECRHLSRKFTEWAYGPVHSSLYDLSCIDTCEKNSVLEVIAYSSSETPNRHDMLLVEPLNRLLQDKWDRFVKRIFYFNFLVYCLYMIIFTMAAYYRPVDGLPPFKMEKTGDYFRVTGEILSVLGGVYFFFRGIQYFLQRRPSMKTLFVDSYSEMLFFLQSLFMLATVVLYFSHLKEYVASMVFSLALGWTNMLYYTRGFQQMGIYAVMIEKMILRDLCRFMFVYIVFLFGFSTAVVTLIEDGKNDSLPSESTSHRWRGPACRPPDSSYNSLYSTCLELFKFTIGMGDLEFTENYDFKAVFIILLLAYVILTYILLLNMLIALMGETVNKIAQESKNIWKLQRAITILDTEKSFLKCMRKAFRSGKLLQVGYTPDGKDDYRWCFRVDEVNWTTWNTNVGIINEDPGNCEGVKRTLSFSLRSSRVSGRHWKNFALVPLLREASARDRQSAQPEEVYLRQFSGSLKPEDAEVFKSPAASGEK
Briefly: Functional testing on vanilloid receptor VR1, FLIPR Ca2+ inflow assay (CHO K1 cells stably transfected with the VR1 gene). Particulars: test compound 10 μM; for inhibition at 10 µM / activation at 10 µM: CHO-K1; for inhibition at 10 µM / VR1 (human) (% inhibition compared to 10 μM CP): 5 min incubation, then 100 nM capsaicin, relative to maximum achievable inhibition with 10 μM capsaicin; for inhibition at 10 µM: read-out: VR1 (human) (% inhibition compared to 10 μM CP); for activation at 10 µM / VR1 (human) (% stimulation compared to 10 μM CP): Ca2+ inflow relative to signal of 10 μM capsaicin (CP); for activation at 10 µM: read-out: VR1 (human) (% stimulation compared to 10 μM CP). Format: cell-based. The text has this: II. Functional Testing Carried out on the Vanilloid Receptor (VR1)
The agonistic or antagonistic effect of the substances to be tested can also be determined on the vanilloid receptor (VR1) using the following assay. According to this assay, the Ca^2+ inflow is quantified through the channel using a Ca^2+-sensitive dye (type Fluo-4, Molecular Probes Europe BV, Leiden, Netherlands) in a fluorescent imaging plate reader (FLIPR, Molecular Devices, Sunnyvale, USA).
Chinese hamster ovary cells (CHO K1 cells, European Collection of Cell Cultures (ECACC) United Kingdom) were stably transfected with the VR1 gene. For functional testing, these cells were plated out on poly-D-lysine-coated black 96 well plates having a clear base (BD Biosciences, Heidelberg, Germany) at a density of 25,000 cells/well. The cells were incubated overnight at 37° C. and 5% CO2 in a culture medium (Ham's F12 nutrient mixture, 10-% by volume of FCS (foetal calf serum), 18 μg/ml L-proline). The next day the cells were incubated with Fluo-4 (Fluo-4 2 μM, 0.01% by volume of Pluronic F127, Molecular Probes in HBSS (Hank's buffered saline solution), Gibco Invitrogen GmbH, Karlsruhe, Germany) for 30 minutes at 37° C. Subsequently, the plates were washed 3 times with HBSS buffer and after further incubation for 15 minutes at room temperature used for Ca^2+ measurement in a FLI PR assay. The Ca^2+-dependent fluorescence was measured before and after the addition of the substances to be tested (λex wavelength=488 nm, λem=540 nm). Quantification was carried out by measuring the highest fluorescence intensity (FC, Fluorescence Counts) over time.
The FLIPR protocol consists of 2 substance additions. First the compounds to be tested (10 μM) were pipetted onto the cells and the Ca^2+ inflow was compared with the control (capsaicin 10 μM) (% activation based on the Ca^2+ signal after the addition of 10 μM capsaicin). After 5 minutes' incubation, 100 nM of capsaicin were administered and the Ca^2+ inflow was also determined.
Desensitising agonists and antagonists led to suppression of the Ca^2+ inflow. The % inhibition was calculated compared to the maximum achievable inhibition with 10 μM of capsaicin.

This note sets out measurements from patent publication US20080214807A1, “Substituted Spiro Compounds and their Use for Producing Drugs” (Gruenenthal GmbH, priority 2005, published 2008).

Each structure is given as a SMILES string.

T1 sequence (O35433 whole entry): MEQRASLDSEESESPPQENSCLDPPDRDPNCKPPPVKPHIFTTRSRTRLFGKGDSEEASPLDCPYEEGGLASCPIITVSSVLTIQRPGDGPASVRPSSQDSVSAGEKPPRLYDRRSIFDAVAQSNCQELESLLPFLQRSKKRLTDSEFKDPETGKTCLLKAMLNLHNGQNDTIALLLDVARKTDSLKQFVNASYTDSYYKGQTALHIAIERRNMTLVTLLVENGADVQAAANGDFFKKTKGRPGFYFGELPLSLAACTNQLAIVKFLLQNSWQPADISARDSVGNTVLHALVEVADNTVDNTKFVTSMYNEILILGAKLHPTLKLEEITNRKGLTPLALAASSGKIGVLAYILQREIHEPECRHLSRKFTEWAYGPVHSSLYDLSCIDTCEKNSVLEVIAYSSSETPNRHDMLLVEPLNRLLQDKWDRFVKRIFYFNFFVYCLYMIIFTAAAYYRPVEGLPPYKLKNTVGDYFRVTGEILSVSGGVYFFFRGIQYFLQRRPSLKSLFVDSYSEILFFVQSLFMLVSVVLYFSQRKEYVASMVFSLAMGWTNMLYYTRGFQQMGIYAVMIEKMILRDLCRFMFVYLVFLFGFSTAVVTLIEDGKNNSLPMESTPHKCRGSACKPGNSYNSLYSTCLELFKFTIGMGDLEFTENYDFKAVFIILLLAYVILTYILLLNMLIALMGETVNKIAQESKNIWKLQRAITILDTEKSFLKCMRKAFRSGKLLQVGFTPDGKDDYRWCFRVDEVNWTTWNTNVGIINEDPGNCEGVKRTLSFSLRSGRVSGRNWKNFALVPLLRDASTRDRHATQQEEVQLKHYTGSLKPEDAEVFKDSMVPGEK

Take `O=C(Nc1cc(C(F)(F)F)ccc1Cl)N1CCC2(CC1)CC(C(=O)N1CCN(c3ncccc3Cl)CC1)=NO2` [Example 22, 3-[4-(3-chloropyridin-2-yl)piperazine-1-carbonyl]-1-oxa-2,8-diazaspiro[4.5]dec-2-ene-8-carboxylic acid-(2-chloro-5-trifluoromethylphenyl)amide]: in assay [1], the inhibition (in general, the relative decrease from the control value, in per cent) at 10 µM stood at 43.3% and the activation at 10 µM worked out at 2.79%. Moreover, in assay [2], the inhibition at 10 µM amounted to 8.37% and the activation at 10 µM was -0.66%.

In the case of `CC(C)c1ccccc1NC(=O)N1CCC2(CC1)CC(C(=O)N1CCN(c3ncccc3Cl)CC1)=NO2` [Example 61, 3-[4-(3-chloropyridin-2-yl)piperazine-1-carbonyl]-1-oxa-2,8-diazaspiro[4.5]dec-2-ene-8-carboxylic acid-(2-isopropylphenyl)amide], the inhibition at 10 µM in assay [1] is 47%; in assay [2], -15.1%. The activation at 10 µM in assay [1] was 0.47%; in assay [2] it was 0.08%.

Take `O=C(Nc1ccccc1F)N1CCC2(CC1)CC(C(=O)N1CCN(c3ncccc3Cl)CC1)=NO2` [Example 1, 3-[4-(3-chloropyridin-2-yl)piperazine-1-carbonyl]-1-oxa-2,8-diazaspiro[4.5]dec-2-ene-8-carboxylic acid-(2-fluorophenyl)amide]: in assay [1], the inhibition at 10 µM worked out at 34.2% and the activation at 10 µM is 6.37%. In addition, in assay [2], the inhibition at 10 µM was 33.6% and the activation at 10 µM was 4.85%.

In the case of `CC(C)(C)c1ccc(NC(=O)N2CCC3(CC2)CC(C(=O)N2CCN(c4ncccc4Cl)CC2)=NO3)cc1` [Example 116, 3-[4-(3-chloropyridin-2-yl)piperazine-1-carbonyl]-1-oxa-2,8-diazaspiro[4.5]dec-2-ene-8-carboxylic acid-(4-tert-butylphenyl)amide], in assay [1], the inhibition at 10 µM worked out at 95% and the activation at 10 µM was determined as 59%. In addition, in assay [2], the inhibition at 10 µM was 77% and the activation at 10 µM was determined as 42%.

Turning to `COc1cccc(NC(=O)N2CCC3(CC2)CC(C(=O)N2CCN(c4ncccc4Cl)CC2)=NO3)c1` [Example 17, 3-[4-(3-chloropyridin-2-yl)piperazine-1-carbonyl]-1-oxa-2,8-diazaspiro[4.5]dec-2-ene-8-carboxylic acid-(3-methoxyphenyl)amide], the inhibition at 10 µM turned out to be 46.9% in assay [1] and 53.7% in assay [2]. Also, the values for the activation at 10 µM in assay [1] and in assay [2] were 19.8% and 19.5%, respectively.

Consider `COc1cccc(NC(=O)N2CCC3(CC2)CC(C(=O)NCc2ccc(OC)c(OC)c2)=NO3)c1` [Example 16, 1-oxa-2,8-diazaspiro[4.5]dec-2-ene-3,8-dicarboxylic acid-3-(3,4-dimethoxybenzylamide)-8-[(3-methoxyphenyl)amide]], for which, in assay [1], the “VR1 (rat) (% inhibition compared to 10 μM CP)” value was found to be 8.65% and the “VR1 (rat) (% stimulation compared to 10 μM CP)” value was 0.00%. Further, in assay [2], the “VR1 (human) (% inhibition compared to 10 μM CP)” value amounted to 0.77% and the “VR1 (human) (% stimulation compared to 10 μM CP)” value is recorded as 0.40%.

`CSc1cccc(NC(=O)N2CCC3(CC2)CC(C(=O)N2CCN(c4ncccc4Cl)CC2)=NO3)c1` [Example 56, 3-[4-(3-chloropyridin-2-yl)piperazine-1-carbonyl]-1-oxa-2,8-diazaspiro[4.5]dec-2-ene-8-carboxylic acid-(3-methylsulphanylphenyl)amide]: in assay [1], the inhibition at 10 µM amounted to 63.3% and the activation at 10 µM is 30.2%. For the same compound, in assay [2], the inhibition at 10 µM worked out at 41.9% and the activation at 10 µM is 5.26%.

For `O=C(Nc1ccc(C(F)(F)F)cc1)N1CCC2(CC1)CC(C(=O)N1CCN(c3ncccc3Cl)CC1)=NO2` [Example 71, 3-[4-(3-chloropyridin-2-yl)piperazine-1-carbonyl]-1-oxa-2,8-diazaspiro[4.5]dec-2-ene-8-carboxylic acid-(4-trifluoromethylphenyl)amide], in assay [1], the inhibition at 10 µM was 57.2% and the activation at 10 µM was 31.2%. Moreover, in assay [2], the inhibition at 10 µM is 42% and the activation at 10 µM stood at 34.7%.

For the compound `COc1ccc(NC(=O)N2CCC3(CC2)CC(C(=O)N2CCN(c4ncccc4Cl)CC2)=NO3)cc1` [Example 52, 3-[4-(3-chloropyridin-2-yl)piperazine-1-carbonyl]-1-oxa-2,8-diazaspiro[4.5]dec-2-ene-8-carboxylic acid-(4-methoxyphenyl)amide], in assay [1], the inhibition at 10 µM came to 55.8% and the activation at 10 µM came to 38.5%. In addition, in assay [2], the inhibition at 10 µM came out at 45.1% and the activation at 10 µM was found to be 47.5%.

As to `O=C(Nc1ccc(Cl)cn1)C1=NOC2(CCN(C(=O)Nc3ccccc3Cl)CC2)C1` [Example 9, 1-oxa-2,8-diazaspiro[4.5]dec-2-ene-3,8-dicarboxylic acid-8-[(2-chlorophenyl)amide]-3-[(5-chloropyridin-2-yl)amide]], in assay [1], the “VR1 (rat) (% inhibition compared to 10 μM CP)” value turned out to be 45.63% and the “VR1 (rat) (% stimulation compared to 10 μM CP)” value was 0.23%. Also, in assay [2], the “VR1 (human) (% inhibition compared to 10 μM CP)” value is 26.23% and the “VR1 (human) (% stimulation compared to 10 μM CP)” value is −0.48%.

With `O=C(Nc1ccc(OC(F)(F)F)cc1)N1CCC2(CC1)CC(C(=O)N1CCN(c3ncccc3Cl)CC1)=NO2` [Example 34, 3-[4-(3-chloropyridin-2-yl)piperazine-1-carbonyl]-1-oxa-2,8-diazaspiro[4.5]dec-2-ene-8-carboxylic acid-(4-trifluoromethoxyphenyl)amide], in assay [1], the inhibition at 10 µM came out at 86.2% and the activation at 10 µM amounted to 6.21%. Besides, in assay [2], the inhibition at 10 µM amounted to 51.9% and the activation at 10 µM is -0.13%.
